Test results published in patent US20170051149A1, “AZOARYLS AS REVERSIBLY MODULATABLE TUBULIN INHIBITORS” (ECOLE NORMALE SUPERIEURE DE LYON, priority 2014, published 2017).

What was measured:
Test in all cases: cell cycle analysis by PI flow cytometry
Format in all cases: cell-based
MDA-MB-231 cells = tested on: MDA-MB-231 cells
Procedure: (§1) The effect of compound I.1 on cell cycle progression was assessed by flow cytometry. Briefly, following the application of compound I.1 and exposure to the indicated light regime, cells were harvested on ice and incubated in a hypotonic buffer [0.1% sodium citrate, 0.1% Triton X-100 and 50 μg/mL propidium iodide (PI)] for 30 min at 4° C. Following the PI staining cells were analysed by flow cytometry using FACSCalibur flow cytometer (Becton Dickinson, Heidelberg, Germany) and Cell Quest Pro Software (Becton Dickinson). Subsequently the cell cycle analysis was performed using the FlowJo software (Tree Star Inc., Ashland, Oreg., USA).

HepG2 cells = details: 48 h
Procedure: as §1

HeLa = details: 30 h
Procedure: as §1

[1] = 10 nM, 390 nm (150 ms every 30 s), 48 h
[2] = 20 nM, 390 nm (150 ms every 30 s), 48 h
[3] = 50 nM, 390 nm (150 ms every 30 s), 48 h
[4] = 100 nM, 390 nm (150 ms every 30 s), 48 h
[5] = 400 nM, 390 nm (150 ms every 30 s), 48 h
[6] = 600 nM, 390 nm (150 ms every 30 s), 48 h
[7] = 800 nM, 390 nm (150 ms every 30 s), 48 h
[8] = 1 μM, 390 nm (150 ms every 30 s), 48 h
[9] = 2 μM, 390 nm (150 ms every 30 s), 48 h
[10] = 5 μM, 390 nm (150 ms every 30 s), 48 h

## COc1ccc(N=Nc2cc(OC)c(OC)c(OC)c2)cc1O [I.1, 2-methoxy-5-((3,4,5-trimethoxyphenyl)diazenyl)phenol]
MDA-MB-231 cells; [1]
  % G2: 1.9%
  % S: 17.1%
  mean % G2/M phase: 1.9%
MDA-MB-231 cells; 10 nM, 390 nm + 515 nm (rescue), 48 h
  mean % G2/M phase: 0.8%
MDA-MB-231 cells; 10 nM, 515 nm (500 ms every 30 s), 48 h
  mean % G2/M phase: 1.1%
MDA-MB-231 cells; [2]
  % G1: 79.5%
  % G2: 2.5%
  % S: 18.0%
MDA-MB-231 cells; [3]
  % G1: 77.1%
  % G2: 1.8%
  % S: 18.0%
MDA-MB-231 cells; [4]
  % G1: 76.6%
  % G2: 2.0%
  % S: 18.5%
  mean % G2/M phase: 2.0%
MDA-MB-231 cells; 100 nM, 390 nm + 515 nm (rescue), 48 h
  mean % G2/M phase: 0.9%
MDA-MB-231 cells; 100 nM, 515 nm (500 ms every 30 s), 48 h
  mean % G2/M phase: 1.2%
MDA-MB-231 cells; 200 nM, 390 nm (1 s every 15 min), 30 h
  mean % G2/M phase: 8.2%
MDA-MB-231 cells; 200 nM, dark, 30 h
  mean % G2/M phase: 14.3%
MDA-MB-231 cells; [5]
  % G1: 53.1%
  % G2: 15.1%
  % S: 27.6%
  mean % G2/M phase: 15.1%
MDA-MB-231 cells; 400 nM, 390 nm + 515 nm (rescue), 48 h
  mean % G2/M phase: 6.4%
MDA-MB-231 cells; 400 nM, 515 nm (500 ms every 30 s), 48 h
  mean % G2/M phase: 8.2%
MDA-MB-231 cells; 600 nM, 390 nm (1 s every 15 min), 30 h
  mean % G2/M phase: 16.3%
MDA-MB-231 cells; [6]
  % G1: 18.0%
  % G2: 42.6%
  % S: 31.0%
  mean % G2/M phase: 42.6%
MDA-MB-231 cells; 600 nM, 390 nm + 515 nm (rescue), 48 h
  mean % G2/M phase: 17.3%
MDA-MB-231 cells; 600 nM, 515 nm (500 ms every 30 s), 48 h
  mean % G2/M phase: 21.7%
MDA-MB-231 cells; 600 nM, dark, 30 h
  mean % G2/M phase: 12.8%
MDA-MB-231 cells; [7]
  % G1: 9.5%
  % G2: 54.2%
  % S: 27.5%
  mean % G2/M phase: 54.2%
MDA-MB-231 cells; 800 nM, 390 nm + 515 nm (rescue), 48 h
  mean % G2/M phase: 24.7%
MDA-MB-231 cells; 800 nM, 515 nm (500 ms every 30 s), 48 h
  mean % G2/M phase: 32.5%
MDA-MB-231 cells; [8]
  % G1: 5.5%
  % G2: 52.9%
  % S: 27.6%
  mean % G2/M phase: 52.9%
MDA-MB-231 cells; 1 μM, 390 nm + 515 nm (rescue), 48 h
  mean % G2/M phase: 22.3%
MDA-MB-231 cells; 1 μM, 515 nm (500 ms every 30 s), 48 h
  mean % G2/M phase: 28.4%
MDA-MB-231 cells; 1.5 μM, 390 nm (1 s every 15 min), 30 h
  mean % G2/M phase: 40.6%
MDA-MB-231 cells; 1.5 μM, dark, 30 h
  mean % G2/M phase: 13.1%
MDA-MB-231 cells; [9]
  % G1: 4.8%
  % G2: 60.1%
  % S: 26.4%
MDA-MB-231 cells; 5 μM, 390 nm (1 s every 15 min), 30 h
  mean % G2/M phase: 49.4%
MDA-MB-231 cells; [10]
  % G1: 5.0%
  % G2: 70.2%
  % S: 23.9%
MDA-MB-231 cells; 5 μM, dark, 30 h
  mean % G2/M phase: 13.8%
HepG2 cells; 100 nM, 390 nm (250 ms every 15 s)
  mean % G2/M phase: 7.8%
HepG2 cells; 100 nM, dark
  mean % G2/M phase: 10.0%
HepG2 cells; 600 nM, 390 nm (250 ms every 15 s)
  mean % G2/M phase: 9.4%
HepG2 cells; 600 nM, dark
  mean % G2/M phase: 8.6%
HepG2 cells; 1 μM, 390 nm (250 ms every 15 s)
  mean % G2/M phase: 10.7%
HepG2 cells; 1 μM, dark
  mean % G2/M phase: 10.1%
HepG2 cells; 3 μM, 390 nm (250 ms every 15 s)
  mean % G2/M phase: 9.3%
HepG2 cells; 3 μM, dark
  mean % G2/M phase: 11.2%
HepG2 cells; 10 μM, 390 nm (250 ms every 15 s)
  mean % G2/M phase: 42.3%
HepG2 cells; 10 μM, dark
  mean % G2/M phase: 11.7%
HeLa; 200 nM, 390 nm (1 s every 15 min)
  mean % G2/M phase: 26.2%
HeLa; 200 nM, dark
  mean % G2/M phase: 23.5%
HeLa; 600 nM, 390 nm (1 s every 15 min)
  mean % G2/M phase: 33.7%
HeLa; 600 nM, dark
  mean % G2/M phase: 24.8%
HeLa; 1.5 μM, 390 nm (1 s every 15 min)
  mean % G2/M phase: 59.9%
HeLa; 1.5 μM, dark
  mean % G2/M phase: 27.1%
HeLa; 5 μM, 390 nm (1 s every 15 min)
  mean % G2/M phase: 68.7%
HeLa; 5 μM, dark
  mean % G2/M phase: 28.4%
